The results in this text go back to ChEMBL document CHEMBL1159268, “The structures of new lanostane triterpenes from the fruiting bodies of Hebeloma senescens” (J Nat Prod, 1995).

Values after ≈ are worked out from the molar mass of the structure shown. Active and inactive are the calls of the source. The rule behind the calls is not given here.

Series [1] is described as follows: Toxicity against Artemia salina. To be noted: in vivo, read-out: LD50 (the source's name). In kind it is organism-based.
Series [2] has as its system Candida albicans. The series is described as follows: […] activity against Candida albicans. The series is classed as functional, organism-based.
Series [3] concerns Escherichia coli. Kind of series: Antibacterial activity against Escherichia coli. In kind it is functional, organism-based.

Turning to `CC(=O)O[C@H]1[C@H](OC(=O)C[C@@](C)(O)CC(=O)O)C[C@]2(C)C3=C(CC[C@H]2C1(C)C)[C@]1(C)CC[C@H]([C@H]2CC[C@H](C(C)(C)O)O[C@@H]2O)[C@@]1(C)[C@@H](O)C3` [HEBELOMIC ACID A], the LC50 in series [1] worked out at 96.5 µg/mL (≈ 139 µM). Besides, the result in series [2] and in series [3] was inactive.
Take `CC(=O)O[C@H]1CC2=C(CC[C@H]3C(C)(C)[C@@H](OC(C)=O)[C@H](OC(=O)C[C@@](C)(O)CC(=O)O)C[C@]23C)[C@]2(C)CC[C@H]([C@H]3CC[C@H](C(C)(C)O)O[C@@H]3O)[C@@]12C` [HEBELOMIC ACID B]: the LC50 in series [1] is 386 µg/mL (≈ 525 µM). The outcome in series [2] and in series [3] was inactive.
`CC(=O)O[C@H]1O[C@@H](C(C)(C)O)CC[C@@H]1[C@H]1CC[C@@]2(C)C3=C(CC[C@]12C)[C@@]1(C)C[C@@H](OC(=O)C[C@@](C)(O)CC(=O)O)[C@H](OC(C)=O)C(C)(C)[C@@H]1CC3` [HEBELOMIC ACID F]: the LC50 in series [1] stood at 19.7 µg/mL (≈ 27.4 µM). In addition, the outcome in series [2] and in series [3] was inactive.
